# Target: MAP kinase-activated protein kinase 2 (Homo sapiens) (UniProt P49137)
# Assay: Inhibition of MK2
# Chain of MAP kinase-activated protein kinase 2 (Homo sapiens) (P49137 whole entry, looked up): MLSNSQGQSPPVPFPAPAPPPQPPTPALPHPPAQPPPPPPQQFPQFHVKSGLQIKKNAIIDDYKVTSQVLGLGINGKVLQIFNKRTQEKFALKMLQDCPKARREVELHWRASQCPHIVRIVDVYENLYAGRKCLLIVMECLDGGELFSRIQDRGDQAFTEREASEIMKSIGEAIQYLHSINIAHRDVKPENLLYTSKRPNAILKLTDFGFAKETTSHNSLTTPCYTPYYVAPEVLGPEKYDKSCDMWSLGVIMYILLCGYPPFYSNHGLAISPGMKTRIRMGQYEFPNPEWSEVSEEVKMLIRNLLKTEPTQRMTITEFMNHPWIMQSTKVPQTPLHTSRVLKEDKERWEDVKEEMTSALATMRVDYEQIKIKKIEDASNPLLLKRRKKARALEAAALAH
row,Activity [µM],SMILES
1,1,CCOc1ccc(Nc2c(C)c(NC3CCCC(N)C3)c(C#N)c3ccnn23)cc1 (centres undefined)
2,< 0.2,CCOc1ccc(Nc2c(CCO)c(N[C@@H]3CCCNC3)c(C#N)c3ccnn23)cc1
3,0.2,CCOc1ccc(Nc2c(-c3ccccc3)c(NC3CCCNC3)c(C#N)c3ccnn23)cc1 (centres undefined)
4,< 0.2,C=CCc1c(N[C@@H]2CCCNC2)c(C#N)c2ccnn2c1Nc1ccc(OCC)cc1
5,< 0.2,CCOc1ccc(Nc2c(CC)c(N[C@@H]3CCCNC3)c(C#N)c3ccnn23)cc1
6,1,CCOc1ccc(Nc2c(C)c(NCCCNC3CCCCC3)c(C#N)c3ccnn23)cc1
7,< 0.2,CCOc1ccc(Nc2c(C)c(N[C@H]3CC[C@H](N)CC3)c(C#N)c3ccnn23)cc1
8,< 0.2,c1ccn2nccc2c1
9,0.2,CCOc1ccc(Nc2c(C)c(NCCN)c(C#N)c3ccnn23)cc1
10,< 0.2,CCOc1ccc(Nc2c(C(C)C)c(N[C@H]3CC[C@H](N)CC3)c(C#N)c3ccnn23)cc1
11,< 150,NC(=O)n1ncc2ccccc21
12,10,CCOc1ccc(Nc2c(C)c(NCCCCCCN)c(C#N)c3ccnn23)cc1
13,0.2,CCOc1ccc(Nc2c(C3CC3)c(N[C@@H]3CCCNC3)c(C#N)c3ccnn23)cc1
14,0.2,N#Cc1c(N[C@H]2CC[C@H](N)CC2)cc(Nc2nc3ccccc3s2)n2nccc12
15,10,CCOc1ccc(Nc2c(C)c(OCCN)nc3ccnn23)cc1
16,< 0.2,Cc1c(N[C@@H]2CCCNC2)c(C#N)c2ccnn2c1NCc1nc2ccccc2s1
17,1,CCOc1ccc(Nc2c(C)c(NC3CNCc4ccccc43)c(C#N)c3ccnn23)cc1 (centres undefined)
18,< 0.2,CCOc1ccc(Nc2c(CC(C)C)c(N[C@@H]3CCCNC3)c(C#N)c3ccnn23)cc1
19,0.2,N#Cc1c(N[C@@H]2CCCNC2)cc(Nc2ccccc2Cl)n2nccc12
20,< 0.2,CCOc1ccc(Nc2c(C)c(N[C@H]3CCCNC3)c(C#N)c3ccnn23)cc1
21,1,CCOc1ccc(Nc2c(C)c(NCCC3CCCN3)c(C#N)c3ccnn23)cc1 (centres undefined)
22,< 0.2,COCCOc1ccc(Nc2c(C)c(N[C@H]3CC[C@H](N)CC3)c(C#N)c3ccnn23)cc1
23,10,CCOc1ccc(Nc2c(C)c(N[C@@H]3CCCC[C@H]3N)c(C#N)c3ccnn23)cc1
24,1,CCOc1ccc(Nc2c(C)c(NCC3CCCNC3)c(C#N)c3ccnn23)cc1 (centres undefined)
25,1,CCOc1ccc(Nc2c(C)c(NCC3CCNC3)c(C#N)c3ccnn23)cc1 (centres undefined)
26,0.2,CCOc1ccc(Nc2c(C)c(N[C@H]3CC[C@H](NCc4ccccc4)CC3)c(C#N)c3ccnn23)cc1

# Further lines, the compound ahead of its results:
row,SMILES,Activity [µM]
1,N#Cc1c(N[C@@H]2CCCNC2)cc(Nc2ccc(-c3ccccc3)cc2)n2nccc12,0.2
2,CCOc1ccc(Nc2c(C)c(N[C@H]3CC[C@H](NCCCc4ccccc4)CC3)c(C#N)c3ccnn23)cc1,0.2
3,CCOc1ccc(Nc2c(C)c(N[C@H]3CC[C@H](NCCc4ccccc4)CC3)c(C#N)c3ccnn23)cc1,0.2
4,CCOc1ccc(Nc2c(C)c(NCCCN)c(C#N)c3ccnn23)cc1,0.2
5,CCOc1ccc(Nc2c(C3CC3)c(N[C@H]3CC[C@H](N)CC3)c(C#N)c3ccnn23)cc1,< 0.2
6,CCOc1ccc(Nc2c(C)c(NCC3CCCN3)c(C#N)c3ccnn23)cc1 (centres undefined),1
7,Cc1c(N[C@@H]2CCCNC2)c(C#N)c2ccnn2c1Nc1ccccc1,< 0.2
8,N#Cc1c(N[C@H]2CC[C@H](N)CC2)cc(Nc2ccccc2Cl)n2nccc12,0.2
9,CCOc1ccc(Nc2c(C)c(OC3CCCNC3)nc3ccnn23)cc1 (centres undefined),1
10,CCOc1ccc(Nc2cc(N[C@@H]3CCCNC3)c(C#N)c3ccnn23)cc1,0.2
11,Cc1c(N[C@H]2CC[C@H](N)CC2)c(C#N)c2ccnn2c1Nc1ccc(-c2ccccc2)cc1,< 0.2
12,CCOc1ccc(Nc2c(C)c(NCCC3CCCCN3)c(C#N)c3ccnn23)cc1 (centres undefined),10
13,CCOc1ccc(Nc2c(C)c(NCC3CCCCN3)c(C#N)c3ccnn23)cc1 (centres undefined),1
14,Cc1c(N[C@H]2CC[C@H](N)CC2)c(C#N)c2ccnn2c1NOc1ccccc1,0.2
15,CCOc1ccc(Nc2c(C)c(NCCCCCN)c(C#N)c3ccnn23)cc1,0.2
16,CCOc1ccc(Nc2c(C)c(N[C@H]3CC[C@H](NCC4CCCCC4)CC3)c(C#N)c3ccnn23)cc1,0.2
17,CCOc1ccc(Nc2c(C)c(OC3CCC(N)CC3)nc3ccnn23)cc1 (centres undefined),0.2
18,CCOc1ccc(Nc2c(CC)c(N[C@H]3CC[C@H](N)CC3)c(C#N)c3ccnn23)cc1,< 0.2
19,CCOc1ccc(Nc2c(C)c(NC3CCCCC3N)c(C#N)c3ccnn23)cc1 (centres undefined),10
20,CCOc1ccc(Nc2c(C)c(N[C@H]3CC[C@H](NCC(C)C)CC3)c(C#N)c3ccnn23)cc1,< 0.2
21,CCOc1ccc(Nc2c(C)c(NCCC3CCCN3C)c(C#N)c3ccnn23)cc1 (centres undefined),10
22,COCCOc1ccc(Nc2c(C)c(N[C@@H]3CCCNC3)c(C#N)c3ccnn23)cc1,< 0.2
23,CCOc1ccc(Nc2c(C)c(NC3CCNCC3)c(C#N)c3ccnn23)cc1,0.2
24,CCOc1ccc(Nc2c(C)c(NC3CCC(N)CC3)c(C#N)c3ccnn23)cc1 (centres undefined),< 0.2
25,COCCOc1ccc(Nc2c(C)c(N[C@H]3CCNC3)c(C#N)c3ccnn23)cc1,0.2
26,CCOc1ccc(Nc2c(C)c(NC3CCC(NCc4ccccc4)CC3)c(C#N)c3ccnn23)cc1 (centres undefined),0.2
27,CCCc1c(N[C@@H]2CCCNC2)c(C#N)c2ccnn2c1Nc1ccc(OCC)cc1,< 0.2
28,Cc1c(N[C@@H]2CCCNC2)c(C#N)c2ccnn2c1Nc1nc2ccccc2s1,< 0.2

# — ChEMBL document CHEMBL1156124, “Assessment of the putative binding conformation of a pyrazolopyridine class of inhibitors of MAPKAPK2 using computational studies” (Eur J Med Chem, 2010)
